Source: ChEMBL document CHEMBL1126488, “A new designed tumor selective daunomycin derivative” (Bioorg Med Chem Lett, 1993)

Columns and labels:
HMEC [1] = assay: Cytotoxicity of compound was tested against HMEC cell line (human mamm epithelial cells) after incubation for 72 hour; assay type: functional, cell-based
HMEC [2] = assay: Cytotoxicity of compound was tested against HMEC cell line (human mamm epithelial cells) after incubation for 24 hour; assay type: functional, cell-based
UCLA P-3 = assay: Cytotoxicity of compound was tested against UCLA P-3 cell line (lung carcinoma) after incubation for 24 hour; assay type: functional, cell-based; conditions: Homo sapiens, UCLA P-3, 24 h
P388 [3] = assay: Cytotoxicity of compound was tested against P-388 cell line (mouse leukemia) after incubation for 72 hour; assay type: functional, cell-based; conditions: P388, 72 h
SK-MEL-28 [4] = assay: Cytotoxicity of compound was tested against SK-Mel-28 cell line (melanoma) after incubation for 24 hour; assay type: functional, cell-based; conditions: Homo sapiens, SK-MEL-28, 24 h
OVCAR-3 [5] = assay: Cytotoxicity of compound was tested against Ovcar-3 cell line (ovarian carcinoma) after incubation for 72 hour; assay type: functional, cell-based; conditions: Homo sapiens, OVCAR-3, 72 h
CAPAN-1 [6] = assay: Cytotoxicity of compound was tested against […] cell line (pancreatic carcinoma) after incubation for 72 hour; assay type: functional, cell-based; conditions: Homo sapiens, CAPAN-1, 72 h
MOLT-4 = assay: Cytotoxicity of compound was tested against Molt-4 cell line (T-cell leukemia) after incubation for 24 hour; assay type: functional, cell-based; conditions: Homo sapiens, MOLT-4, 24 h
HT-29 [7] = assay: Cytotoxicity of compound was tested against HT-29 cell line (colon carcinoma) after incubation for 24 hour; assay type: functional, cell-based; conditions: Homo sapiens, HT-29, 24 h
P388 [8] = assay: Cytotoxicity of compound was tested against P-388 cell line (mouse leukemia) after incubation for 24 hour; assay type: functional, cell-based; conditions: P388, 24 h
MCF7 [9] = assay: Cytotoxicity of compound was tested against MCF-7 cell line (breast carcinoma) after incubation for 72 hour; assay type: functional, cell-based; conditions: Homo sapiens, MCF7, 72 h
CAPAN-1 [10] = assay: Cytotoxicity of compound was tested against Capan-1 cell line (pancreatic carcinoma) after incubation for 24 hour; assay type: functional, cell-based; conditions: Homo sapiens, CAPAN-1, 24 h
CHO [11] = assay: Cytotoxicity of compound was tested against CHO cell line (Chinese hamster ovary) after incubation for 24 hour; assay type: functional, cell-based; conditions: Cricetulus griseus
OVCAR-3 [12] = assay: Cytotoxicity of compound was tested against Ovcar-3 cell line (ovarian carcinoma) after incubation for 24 hour; assay type: functional, cell-based; conditions: Homo sapiens, OVCAR-3, 24 h
HL-60 [13] = assay: Cytotoxicity of compound was tested against HL-60 cell line (promyelocytic leukemia) after incubation for 72 hour; assay type: functional, cell-based; conditions: Homo sapiens, HL-60, 72 h
NHDF [14] = assay: Cytotoxicity of compound was tested against NHDF cell line (norm human dermal fibroblast) after incubation for 72 hour; assay type: functional, cell-based
MCF7 [15] = assay: Cytotoxicity of compound was tested against MCF-7 cell line (breast carcinoma) after incubation for 24 hour; assay type: functional, cell-based; conditions: Homo sapiens, MCF7, 24 h
CHO [16] = assay: Cytotoxicity of compound was tested against CHO cell line (Chinese hamster ovary) after incubation for 72 hour; assay type: functional, cell-based; conditions: Cricetulus griseus
HT-29 [17] = assay: Cytotoxicity of compound was tested against HT-29 cell line (colon carcinoma) after incubation for 72 hour; assay type: functional, cell-based; conditions: Homo sapiens, HT-29, 72 h
SK-MEL-28 [18] = assay: Cytotoxicity of compound was tested against SK-Mel-28 cell line (melanoma) after incubation for 72 hour; assay type: functional, cell-based; conditions: Homo sapiens, SK-MEL-28, 72 h
HL-60 [19] = assay: Cytotoxicity of compound was tested against HL-60 cell line (promyelocytic leukemia) after incubation for 24 hour; assay type: functional, cell-based; conditions: Homo sapiens, HL-60, 24 h
[20] = Lethal dose of compound required when administered BALB C mice; assay type: toxicity; conditions: mouse, in vivo
NHDF [21] = assay: Cytotoxicity of compound was tested against NHDF cell line (norm human dermal fibroblast) after incubation for 24 hour; assay type: functional, cell-based

For COc1cccc2c1C(=O)c1c(O)c3c(c(O)c1C2=O)C[C@@](O)(C(C)=O)C[C@@H]3O[C@H]1C[C@H](N)[C@H](O)[C@H](C)O1.Cl [DAUNORUBICIN HYDROCHLORIDE], the IC50 (HMEC [1]) was < 0.098 µM, the IC50 (HMEC [2]) was 0.39 µM and the IC50 (UCLA P-3) was 0.73 µM. For the same compound, the IC50 (P388 [3]) was < 0.098 µM, the IC50 (SK-MEL-28 [4]) was 1.6 µM and the IC50 (OVCAR-3 [5]) was 0.287 µM. It also gave an IC50 (CAPAN-1 [6]) of 3.1 µM, an IC50 (MOLT-4) of 0.001 µM and an IC50 (HT-29 [7]) of 0.78 µM. It also gave an IC50 (P388 [8]) of 0.39 µM, an IC50 (MCF7 [9]) of 13.5 µM and an IC50 (CAPAN-1 [10]) of 0.39 µM. For the same compound, the IC50 (CHO [11]) was 0.39 µM, the IC50 (OVCAR-3 [12]) was 0.39 µM and the IC50 (HL-60 [13]) was 0.098 µM. The IC50 (NHDF [14]) was 0.404 µM, the IC50 (MCF7 [15]) was 0.78 µM and the IC50 (CHO [16]) was 0.294 µM. The IC50 (HT-29 [17]) was 0.357 µM, the IC50 (SK-MEL-28 [18]) was 1.41 µM and the IC50 (HL-60 [19]) was < 0.098 µM. It also gave an LD50 [20] of 15 mg/kg and an IC50 (NHDF [21]) of 0.19 µM.
